Results as given in PubChem BioAssay AID1645868 (Buhrlage Lab, Dana-Farber Cancer Institute and Novartis …, 2021).
The source made the active and inactive calls.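 The calls were made as follows: active = maximal percent inhibition of the deubiquitinase OTUD3 of at least 30% across the tested doses; inactive = the rest.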

Target: OTU domain-containing protein 3 (Homo sapiens) (UniProt Q5T2D3)
Experiment: Validation of screening hits, potency titration, in vitro enzymatic, OTU domain-containing protein 3 DUB inhibitors (AID 1645868)
Conditions: purified OTUD3, ubiquitin-rhodamine cleavage fluorescence, 2 h

OTU domain-containing protein 3 (Homo sapiens), sequence (Q5T2D3 whole entry, looked up, the tested form may be a part): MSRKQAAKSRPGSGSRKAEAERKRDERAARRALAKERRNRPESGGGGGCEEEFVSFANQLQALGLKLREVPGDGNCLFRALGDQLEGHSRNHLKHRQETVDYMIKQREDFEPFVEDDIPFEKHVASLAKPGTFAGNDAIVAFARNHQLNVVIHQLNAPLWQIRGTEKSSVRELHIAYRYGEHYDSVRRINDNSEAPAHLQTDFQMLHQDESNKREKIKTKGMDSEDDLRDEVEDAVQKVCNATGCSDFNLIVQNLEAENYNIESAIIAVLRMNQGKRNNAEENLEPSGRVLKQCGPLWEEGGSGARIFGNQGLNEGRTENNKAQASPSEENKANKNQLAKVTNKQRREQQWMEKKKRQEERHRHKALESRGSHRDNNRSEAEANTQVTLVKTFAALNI

| IC50 | SMILES |
| --- | --- |
| > 50 µM (inactive) | Cc1ccc2c(Nc3ccc(CC(=O)O)cc3)c(C(=O)N3CCCC3)cnc2n1 |
| > 50 µM (inactive) | O=C(c1cc2ccccc2o1)N1CC=C(c2ccccc2)CC1 |
| 42 µM | O=C(CNc1nc(Nc2ccccc2F)nc(Nc2ccccc2F)n1)Nc1ccccc1 |
| 25.6 µM | CC1=CC(=O)C(C2=C(O)C(=O)C(C)=CC2=O)=C(O)C1=O |
| > 50 µM (inactive) | O=C(COC(=O)c1ccc(NS(=O)(=O)c2ccc3c(c2)OCCO3)cc1)NCc1ccc(Cl)cc1 |
| 44.5 µM | Cc1ccn(-c2ccc(NC(=O)c3ccccc3Sc3ccccc3C#N)cc2)n1 |
| > 50 µM (inactive) | COc1ccccc1CC(=O)N(C)C(c1ccccc1)c1ccccc1 |
| > 50 µM (inactive) | CC(=O)N1CCOc2cc(S(=O)(=O)N3CCCC3c3cc(C)no3)ccc21 (centres undefined) |
| > 50 µM (inactive) | CC(=O)Nc1ccc(-n2cnc(C(=O)NC(C)c3ccccc3)c2)nc1 (centres undefined) |
| 28.4 µM | O=C(NCCc1ccco1)c1ccc(N2CCOc3ccccc32)s1 |
| > 50 µM (inactive) | Cc1cc(-n2c(C)cc(-c3csc(N)n3)c2C)no1 |
| 32 µM | O=C(COC(=O)c1n[nH]c2ccccc12)Nc1ccc(N2CCCCC2)cc1 |
| > 50 µM (inactive) | O=C1N(Cc2cccc(Cl)c2)CCN1c1ccc2c(c1)CCC2 |
| > 50 µM (inactive) | COc1ccc(CC(=O)Nc2ccc3nc(N4CCOCC4)cc(C)c3c2)cc1 |
| 26.9 µM | CCCC1Cc2c(sc3nc(SCC)nc(N)c23)CO1 (centres undefined) |
| 22.2 µM | O=C(Cc1noc2ccccc12)NCC(=O)Nc1ccc(Cl)cc1 |
| 1.55 µM | Cn1c2ccccc2c(=O)c2c(=O)n(Cc3ccccc3)c(-c3ccco3)nc21 |
| 29.9 µM | COc1cc(O)c2c(c1)C1=CC(=O)C(O)=C[C@]1(C)OC2=O |
| > 50 µM (inactive) | O=C(c1ccsc1)N1CCC2(C1)Nc1cccnc1NC2=NC1CCCC1 (centres undefined) |
| 23.2 µM | O=C(/C=C/c1ccco1)c1cccc([N+](=O)[O-])c1 |
| 25.5 µM | COc1ccc(/C=C/C(=O)Nc2cccc(S(=O)(=O)Nc3ccccc3Cl)c2)c(OC)c1 |
| > 50 µM (inactive) | COC(=O)c1ccc(Cn2cnc3ccc(F)cc3c2=O)o1 |
| 16.3 µM | COc1cc(Cl)ccc1C(=O)Nc1cccc(-n2cnnn2)c1C |

| IC50 | SMILES |
| --- | --- |
| > 50 µM (inactive) | N#Cc1ccccc1COC(=O)c1ccc2ccccc2n1 |
| > 50 µM (inactive) | Cc1cc(C#N)c2c(C)ccc(C(C)C)cc1-2 |
| > 50 µM (inactive) | COc1ccccc1NC(=O)CSC1=NC2(CCCCC2)Nc2ccccc21 |
| 12.5 µM | COC(=O)c1ccc2c(=O)n(CCCCCC(=O)NCCc3ccc(S(N)(=O)=O)cc3)c(=O)[nH]c2c1 |
| > 50 µM (inactive) | O=C(NCCCN1CCc2ccccc2C1)c1cc2c(s1)CS(=O)(=O)C2 |
| > 50 µM (inactive) | Cc1ccc(NC(=O)c2ccc(N3CCOCC3)nn2)cc1F |
| > 50 µM (inactive) | Cc1ccc(-n2c(-c3ccccc3)cn3c4c(=O)[nH]c(=O)n(C)c4nc23)cc1Cl |
| 23.9 µM | Cc1cccc(NC(=O)Nc2nnc(CC(=O)NCc3ccccc3)s2)c1 |
| > 50 µM (inactive) | CCN1CCCC1CN(Cc1cc2cc(OC)ccc2[nH]c1=O)C(=O)NCc1ccccc1 (centres undefined) |
| > 50 µM (inactive) | COc1ccc(OC)c(NC(=O)CNC(=O)c2cc3c(OC)cccc3[nH]2)c1 |
| > 50 µM (inactive) | COCCCN1CCS(=O)(=O)c2c(Cl)c(F)nc(Oc3ccc(C#N)cc3)c21 |
| > 50 µM (inactive) | Cc1cc(NC(=O)c2nnn(-c3ccccc3Cl)c2C)no1 |
| > 50 µM (inactive) | COc1cccc(NC(=O)C2Cn3ccnc3C3(CCN(C(C)=O)CC3)O2)c1 (centres undefined) |
| 11.8 µM | CC(=O)Nc1ccc(S(=O)(=O)NCc2ccc(C(=O)NCCc3ccc(Cl)cc3)cc2)cc1 |
| > 50 µM (inactive) | Fc1cnc(N2CC[C@H]3CO[C@H](CNc4ncccn4)[C@H]3C2)nc1 |
| > 50 µM (inactive) | c1cncc(-c2nc(Nc3ccc4c(c3)OCCO4)c3ccccc3n2)c1 |
| > 50 µM (inactive) | O=C(C1CCCN(S(=O)(=O)N2CCCCCC2)C1)N1CCN(c2ccccc2)CC1 (centres undefined) |
| > 50 µM (inactive) | COc1cc(C(=O)Nc2ccc(-c3csc(C)n3)cc2)cc(OC)c1OC |
| > 50 µM (inactive) | Cc1ccc(/C=C/C(=O)Nc2ccc3c(c2)OCCO3)cc1 |
| > 50 µM (inactive) | Cc1ccc(Cn2cc(-c3noc(-c4ccncc4)n3)nn2)cc1 |
| > 50 µM (inactive) | CC(=O)N1CCCC(c2nc(C)cc(-c3cc(F)ccc3C(=O)O)n2)C1 (centres undefined) |
| > 50 µM (inactive) | CC(C)NC(=O)Cn1ccn2nc(-c3ccc(Cl)cc3)cc2c1=O |
| 12.7 µM | Cc1cc(C)c(O)c(-c2cc(C(=O)Nc3ccccc3Cl)[nH]n2)c1 |

| IC50 | SMILES |
| --- | --- |
| 30.7 µM | O=C(NCc1cccc(NC(=O)C2CC2)c1)Nc1cccc2ccccc12 |
| > 50 µM (inactive) | O=C(c1ccc2occc2c1)N1CCC(S(=O)(=O)c2ccc(-c3ccco3)cc2)CC1 |
| > 50 µM (inactive) | COc1ccc(-c2cc3c(=O)n(CC(=O)NCCCN4CCCC4)ncn3n2)cc1 |
| 26.6 µM | CO[C@H]1CC[C@H](O)c2c1oc1c3c4c(c(O)c1c2=O)-c1c(cc2c(Cl)c(C)n(N)c(=O)c2c1O)C[C@@H]4OCO3 |
| 22.4 µM | COc1ccc(N(CC(=O)Nc2cccc(F)c2)S(=O)(=O)c2ccc(OC)c(OC)c2)cc1 |
| 33.3 µM | Cc1nn(-c2cc(N3CCOCC3)ncn2)c(C)c1CCC(=O)Nc1ccc(C(C)C)cc1 |
| > 50 µM (inactive) | Cc1ccc(NC(=O)C2CCN(c3cncnc3N3CCCC3)CC2)cc1 |
| > 50 µM (inactive) | O=C(NCc1ccco1)c1ccc2c(c1)N(Cc1cccc(F)c1)C(=O)c1ccccc1S2 |
| 22.1 µM | Cc1cccc(NC(=O)CN2C(=O)CC(c3ccccc3)S(=O)(=O)c3ccccc32)c1C (centres undefined) |
| > 50 µM (inactive) | Cc1cc(C)cc(NC(=O)CN2C(=O)CC(c3ccccc3)Sc3ccccc32)c1 (centres undefined) |
| 31.5 µM | Cc1ccc2c(c1)c(=O)c(C(=O)c1ccccc1)cn2CC(=O)Nc1ccccc1 |
| 30.6 µM | O=C(CCn1c(=O)c2ccccc2n(Cc2cc(=O)n3ccccc3n2)c1=O)NCCc1ccc(Cl)cc1 |
| > 50 µM (inactive) | O=C(NCCN1CCCC1)C1CCN(c2cnc(N3CCCCC3)nc2)CC1 |
| 2.42 µM | COc1ccc(OCCn2c(C3CC(=O)N(c4cccc(C)c4)C3)nc3ccccc32)cc1 (centres undefined) |
| > 50 µM (inactive) | CCN(Cc1ccccc1)S(=O)(=O)c1ccc(C(=O)Nc2ccc3c(c2)OCCO3)cc1 |
| > 50 µM (inactive) | NS(=O)(=O)c1cc(C(=O)OCC(=O)c2ccc3c(c2)OCCO3)ccc1Cl |
| 23.3 µM | Cc1cc(=O)n(CC(=O)Nc2ccccc2C)c(Nc2ccc(F)cc2)n1 |
| 22.4 µM | Cn1c(=O)/c(=C/c2ccccc2)[nH]c(=O)/c1=C/c1ccccc1 |
| 21.8 µM | Cc1ccc(NC(=O)Cc2nnc3cc(-c4nc(C)no4)ccn23)cc1 |
| 2.45 µM | O=[N+]([O-])c1ccc(N2CCN(c3ncnc4c3[nH]c3ccc(F)cc34)CC2)cc1 |
| > 50 µM (inactive) | CC(C)c1nc2sc3c(NCc4ccco4)ncnc3c2c2c1CCC2 |
| > 50 µM (inactive) | CC(=O)[C@H]1c2c(c(O)c3c(O)cccc3c2-c2c3c(c(O)c4c(O)cccc24)C(=O)C[C@](C)(O)[C@H]3C(C)=O)C(=O)C[C@]1(C)O |
| > 50 µM (inactive) | O=C1CN(C(=O)COC(=O)CCCN2C(=O)c3cccc4cccc(c34)C2=O)c2ccccc2N1 |

| IC50 | SMILES |
| --- | --- |
| > 50 µM (inactive) | C[C@@H]1O[C@@H](O[C@H]2[C@H](O[C@H]3[C@H](O[C@H]4CC[C@@]5(C)[C@@H](CC[C@]6(C)[C@@H]5CC=C5[C@@H]7CC(C)(C)CC(=O)[C@]7(C)CC[C@]56C)[C@@]4(C)CO)O[C@H](C(=O)O)[C@@H](O)[C@@H]3O)OC[C@@H](O)[C@@H]2O)[C@H](O)[C@H](O)[C@H]1O |
| 11.6 µM | CCOc1ccc(NC(=O)Cn2c(=O)n(CCC(=O)NCc3ccco3)c(=O)c3ccccc32)cc1 |
| > 50 µM (inactive) | Cn1c(CCN2CCCC2)nc2cc(NC(=O)c3ccccc3)ccc21 |
| 19.9 µM | COc1cccc(NC(=O)c2cnc3c(c2)c(=O)n(C)c(=O)n3C)c1 |
| > 50 µM (inactive) | Cc1cccc(NC(=O)c2nc(N3CCSCC3)c3cnn(C)c3n2)c1 |
| 44.5 µM | COc1ccc2[nH]cc(S(=O)(=O)c3ccc(C)c(F)c3)c(=O)c2c1 |
| > 50 µM (inactive) | Cc1nc(Nc2c3ccccc3nc3ccccc23)sc1C |
| 20 µM | Cc1ccc(Nc2nc(O)c(CC(=O)Nc3ccccc3C)s2)cc1C |
| > 50 µM (inactive) | COCCCn1c(C(=O)Nc2ccccc2OC)cc2c(=O)n3ccccc3nc21 |
| 39.4 µM | O=C(COc1ccccc1-c1nnc(-c2ccccc2)o1)Nc1ccc(F)cc1F |
| > 50 µM (inactive) | CCOc1ccc(CCNC(=O)CCC(=O)Nc2ccc3nc(N4CCN(C)CC4)cc(C)c3c2)cc1OCC |
| 28.5 µM | CC1CS(=O)(=O)N(c2ccc(C(=O)Nc3ccc4c(c3)OCCO4)cc2)C1=O (centres undefined) |
| > 50 µM (inactive) | O=C(Cn1c(=O)n(Cc2ccccc2)c(=O)c2ncccc21)NCc1ccccc1Cl |
| > 50 µM (inactive) | COc1cccc(-n2nnc(C(=O)Nc3ccc(C)c(C)c3)c2C)c1 |
| > 50 µM (inactive) | CC(C)Cn1cc(OC(=O)c2ccc(F)cc2)c2c1nc(-c1ccc(F)cc1)n1c3ccccc3nc21 |
| > 50 µM (inactive) | O=C(NC1CC1)c1ccnn1-c1ccc2ccc(-c3ccncc3)cn12 |
| > 50 µM (inactive) | Cc1ccc(NC(=O)c2cc(-c3cccnc3)n(-c3ccccc3)n2)nc1 |
| 38.8 µM | COc1ccc(NC(=O)c2nnc(C(=O)NCCN3CCCCCC3)s2)cc1 |
| > 50 µM (inactive) | N#Cc1cn(CC(=O)N2CCc3ccccc32)c2ccccc12 |
| > 50 µM (inactive) | CC(C)c1cc(Nc2cccc(F)c2)n2nc(-c3cccnc3)nc2n1 |
| 23.4 µM | CCC(C)c1ccc(O[C@@H]2O[C@@H]3COC(c4ccccc4)O[C@H]3[C@H](O)[C@H]2NC(C)=O)cc1 (some centres undefined) |
| 6.75 µM | CC1(C)Cc2c(sc3nc(Cc4ccccc4)nc(SCC(=O)Nc4ccccc4)c23)CO1 |
| > 50 µM (inactive) | CCOC(=O)c1sc2c(c1C)c(=O)n(Cc1ccccc1)c(=O)n2CC(N)=O |

| SMILES | IC50 |
| --- | --- |
| CC1Oc2cc3c(-c4c(O)cc(O)c5c(O)c6c(cc45)OC(C)C(C)C6=O)c(O)cc(O)c3c(O)c2C(=O)C1C (centres undefined) | 2.47 µM |
| Cn1ccnc1CN1C[C@H]2CCN(c3ncccn3)C[C@H]2C1 | > 50 µM (inactive) |
